# Test results from US10568892B2, “Cycloartane tetracyclic triterpenoid compound, preparation method therefor and use thereof” (Hefei Cosource Pharmaceuticals Inc., priority 2016, dated 2020).
# Test system: ventricular papillary muscle cell of guinea pig
# Experiment: Action potential of the ventricular papillary muscle cell of guinea pig (electrophysiological recording)
# Format: cell-based
# Details: screening stage; for percent change in action potential duration at 0.0005 µM / percent change in action potential duration at 0.005 µM / percent change in action potential duration at 0.05 µM: Cavia porcellus, 20 min, read-out: APD, Change rate (%); for APD, Post-administration: about 20 min perfusion; for Effect on the APD value of the action potential of the papillary muscle (in words): Table 3 summary
# Protocol: Method: One guinea pig was taken to violently hit the back of the brain such that it fainted. The common carotid artery was cut off for bleeding to kill the guinea pig. The chest was incised to expose the heart, and the ventricle was cut open along the interventricular septum to expose the lumen of the left ventricle. The papillary muscles were quickly taken out and placed in a Kreb's solution saturated with O2 (mixed gas of 95% O2 and 5% CO2) at 0° C. After the microscopic dressing, the papillary muscle specimen was fixed with a stainless steel needle on the silicone rubber at the bottom of the perfusion bath, and perfused with the oxygen-saturated Kreb's solution. The relevant parameters for perfusion: the temperature was 37±0.5° C., and the flow rate was 4 mL/min.
# Cellular action potentials were recorded using a conventional electrophysiological method. The glass electrode filled with 3M KCl saturated solution and having a tip resistance of 15-30 MΩ was fixed on the microelectrode manipulator MP-2. The glass electrode was gently inserted into the superficial layer of the prepared papillary muscle specimen using a microelectrode pusher. The electrode was adjusted to provide the predetermined bioelectrical stimulation with the triple-channel SEN-7203 electronic stimulator and SS-202 J isolator. The bioelectrical signal was amplified by the MEZ-8301 amplifier and then input to the computerized electrophysiological recording and analysis system Powerlab 4/25. Subsequently, the relevant parameters of the action potential for the ventricular papillary muscle were analyzed through the analysis system. The relevant parameters for electrical stimulation: 30 ms latency, 7 ms wavewidth, 1 Hz frequency, 52.1 my stimulation intensity.
# In the compound screening test stage, after the ventricular papillary muscle specimen of the guinea pig was fixed, it was first perfused with a normal Kreb's solution for about 85 minutes for stabilization, and the relevant parameters of the cellular action potential before administration were recorded at about 80 min after the start of perfusion. The three-limb tube was used to convert the perfusates containing the title compounds. The title compounds were continuously perfused for about 25 min successively with low (0.0005 μM), medium (0.005 μM), and high (0.05 μM) concentrations, respectively. At about 20 min after the start of drug perfusions at different concentrations, the relevant parameters of the action potentials for the ventricular papillary muscle of guinea pig were observed and recorded, respectively. The normal Kreb's solution was used to perfuse and elute for about 25 min during the intervals between drug perfusions at different concentrations.
# The experiment was divided into the following five groups with 6 animals in each group: a vehicle control group, a 369 low dose (0.0005 μM) group, a 369 medium dose (0.005 μM) group, a 369 high dose (0.05 μM) group, and an amiodarone (10 μM) positive control group. After the ventricular papillary muscle specimen of the guinea pig was fixed, it was first perfused with a normal Kreb's solution for about 85 minutes for stabilization, and the relevant parameters of the cellular action potential before administration were recorded at about 80 min after the start of perfusion. According to groups, the three-limb tube was configured to convert the perfusates containing the vehicle, positive control, or Compound 369 at the corresponding concentrations to continuously perfuse for about 25 min. At about 20 min after the start of the perfusions, the relevant parameters of the action potentials for the ventricular papillary muscle of guinea pig were observed and recorded.
SMILES,percent change in action potential duration at 0.0005 µM (0.0005 μM),percent change in action potential duration at 0.005 µM (0.005 μM),percent change in action potential duration at 0.05 µM (0.05 μM),"APD, Post-administration (0.0005 μM)","APD, Post-administration (0.005 μM)","APD, Post-administration (0.05 μM)",Effect on the APD value of the action potential of the papillary muscle (in words)
"CN[C@H]1CC[C@]23C[C@]24CC[C@]2(C)C(/C(C)=N\OC)=CC[C@@]2(C)[C@@H]4CC[C@H]3C1(C)C [Compound 398, (3β,5α)-4,4,14-trimethyl-3-(methylamino)-20-methoxyimino-9,19-cyclopregnan-16-ene]",-0.86%,6.63%,9.46%,0.0695,0.771,0.764,
"CN[C@H]1CC[C@]23C[C@]24CC[C@]2(C)C(C(=O)COC(=O)c5ccccc5C(=O)O)=CC[C@@]2(C)[C@@H]4CC[C@H]3C1(C)C.Cl [Compound 570, (3β,5α)-4,4,14-trimethyl-3-(methylamino)-21-(2-carboxybenzoyloxy)-9,19-cyclopregnan-16-en-20-one hydrochloride]",12.3%,21.8%,30.5%,0.0813,0.0850,0.928,a certain degree of prolonged effects
"CC(=O)C1=CC[C@@]2(C)[C@@H]3CC[C@H]4C(C)(C)[C@@H](N(C)C5CC5)CC[C@@]45C[C@@]35CC[C@]12C [Compound 409, (3β,5α)-4,4,14-trimethyl-3-(methylcyclopropylamino)-9,19-cyclopregnan-16-en-20-one]",1.84%,3.25%,6.07%,0.0773,0.0762,0.0786,
"CN[C@H]1CC[C@]23C[C@]24CC[C@]2(C)C(C(C)=O)=C(F)C[C@@]2(C)[C@@H]4CC[C@H]3C1(C)C [Compound 387, (3β,5α)-4,4,14-trimethyl-16-fluoro-3-(methylamino)-9,19-cyclopregnan-16-en-20-one]",8.49%,19.8%,24.2%,0.0869,0.0944,0.0985,a certain degree of prolonged effects
"CN(C)[C@H]1CC[C@]23C[C@]24CC[C@]2(C)C(C(=O)CO)=CC[C@@]2(C)[C@@H]4CC[C@H]3C1(C)C [Compound 399a, (3β,5α)-4,4,14-trimethyl-21-hydroxy-3-(dimethylamino)-9,19-cyclopregnan-16-en-20-one]",24.4%,28.5%,38.4%,0.0960,0.1010,0.1103,a certain degree of prolonged effects
"CN[C@H]1CC[C@]23C[C@]24CC[C@]2(C)C(C(=O)CO)=CC[C@@]2(C)[C@@H]4CC[C@H]3C1(C)C [Compound 385, (3β,5α)-4,4,14-trimethyl-21-hydroxy-3-(methylamino)-9,19-cyclopregnan-16-en-20-one]",16.4%,27.4%,40.1%,0.0796,0.0893,0.975,a certain degree of prolonged effects
"CN[C@H]1CC[C@]23C[C@]24CC[C@]2(C)C(/C(C)=N\O)=CC[C@@]2(C)[C@@H]4CC[C@H]3C1(C)C [Compound 384, (3β,5α)-4,4,14-trimethyl-3-(methylamino)-9,19-cyclopregnan-16-en-20-one oxime]",21.2%,38.6%,41.3%,0.0890,0.0988,0.1047,a certain degree of prolonged effects
"CN[C@H]1CC[C@]23C[C@]24CC[C@]2(C)C(C(=O)COC(C)=O)=CC[C@@]2(C)[C@@H]4CC[C@H]3C1(C)C [Compound 427, (3β,5α)-4,4,14-trimethyl-21-acetoxy-3-(methylamino)-9,19-cyclopregnan-16-en-20-one]",18.2%,20.6%,42.9%,0.0903,0.0929,0.1073,a certain degree of prolonged effects
"CCN(C)[C@H]1CC[C@]23C[C@]24CC[C@]2(C)C(C(C)=O)=CC[C@@]2(C)[C@@H]4CC[C@H]3C1(C)C [Compound 397, (3β,5α)-4,4,14-trimethyl-3-(methylethylamino)-9,19-cyclopregnan-16-en-20-one]",7.68%,-3%,11.8%,0.0785,0.0711,0.0841,
"CN[C@H]1CC[C@]23C[C@]24CC[C@]2(C)C(C(=O)COC(=O)CCC(=O)O)=CC[C@@]2(C)[C@@H]4CC[C@H]3C1(C)C.Cl [Compound 522, (3β,5α)-4,4,14-trimethyl-3-(methylamino)-21-(3-carboxypropionyloxy)-9,19-cyclopregnan-16-en-20-one hydrochloride]",2.87%,27.2%,36%,0.0824,0.0996,0.1102,a certain degree of prolonged effects
"CN[C@H]1CC[C@]23C[C@]24CC[C@]2(C)C(C(=O)COC(=O)c5ccccc5)=CC[C@@]2(C)[C@@H]4CC[C@H]3C1(C)C [Compound 489, (3β,5α)-4,4,14-trimethyl-3-(methylamino)-21-(benzoyloxy)-9,19-cyclopregnan-16-en-20-one]",-2.09%,1.85%,9.63%,0.0750,0.0771,0.820,
"CC(=O)C1=CC[C@@]2(C)[C@@H]3CC[C@H]4C(C)(C)[C@@H](N(C)C)CC[C@@]45C[C@@]35CC[C@]12C [Compound 383, (3β,5α)-4,4,14-trimethyl-3-(dimethylamino)-9,19-cyclopregnan-16-en-20-one]",16.3%,29%,,0.0943,0.1024,,a certain degree of prolonged effects
